Assay results: patent publication US8299038B2, “Methods and compositions for treating hepatitis C virus” (Idenix Pharmaceuticals, Inc., priority 2000, dated 2012)
“And” between values parts separate entries of the source, which are not always exact repeats. Equal entries are not always repeated. Each block holds one molecule with its values, some of them ahead of it.

Legend:
HCV = conditions: monotherapy, cited from earlier work
[1] = test system: BFU-E (human bone marrow cells); assay: Human bone marrow toxicity BFU-E clonogenic assay; conditions: read-out: IC50 BFU-E, colony formation after 14 to 18 days
[2] = test system: CFU-GM (human bone marrow cells); assay: Human bone marrow toxicity CFU-GM clonogenic assay; conditions: read-out: IC50 CFU-GM, colony formation after 14 to 18 days
[3] = Bioavailability assay in Cynomolgus monkeys; type: in vivo, cynomolgus monkey; conditions: for Norm AUC: individual monkeys, AUC normalised to dose in mg; for Mean Norm AUC: mean of 3 monkeys
Experimental: Within 1 week prior to the study initiation, the cynomolgus monkey was surgically implanted with a chronic venous catheter and subcutaneous venous access port (VAP) to facilitate blood collection and underwent a physical examination including hematology and serum chemistry evaluations and the body weight was recorded. […] Each dosing syringe was weighed before dosing to gravimetrically determine the quantity of formulation administered. Urine samples were collected via pan catch at the designated intervals (approximately 18-0 hours pre-dose, 0-4, 4-8 and 8-12 hours post-dosage) and processed.

Compound: NC(=O)c1ncn([C@@H]2O[C@H](CO)[C@@H](O)[C@H]2O)n1 [ribavirin, 1-β-D-ribofuranosyl-1-1,2,4-triazole-3-carboxamide]
effect on serum levels of HCV-RNA (HCV; HCV patients): does not lower serum levels of HCV-RNA
patients in whom serum amino transferase levels are reduced to normal (HCV): 40%

Compound: C[C@@]1(O)[C@H](O)[C@@H](CO)O[C@H]1n1cnc2c(N)ncnc21 [β-D-2′-CH3-riboA, 2′-C-methylriboadenine]
IC50 [1]: > 100 µM
IC50 [2]: > 100 µM

CL ([3]; IV 10 mg/kg): 21.3 ± 8 mL/min/kg
Cmax ([3]; IV 10 mg/kg): 6945.6 ± 1886.0 ng/mL
T1/2 ([3]; IV 10 mg/kg): 7.9 ± 5.4 h
Tmax ([3]; IV 10 mg/kg): 0.25 ± 0.00 h
Vss ([3]; IV 10 mg/kg): 2.09 ± 0.54 L/kg
AUC ([3]; IV 10 mg/kg, mean ± spread): 8758.0 ± 4212.9 ng·h/mL
Mean Norm AUC ([3]; IV): 284.9 ng·h/mL/mg
Cmax ([3]; PO 10 mg/kg): 217.7 ± 132.1 ng/mL
T1/2 ([3]; PO 10 mg/kg): 10.3 ± 4.1 h
Tmax ([3]; PO 10 mg/kg): 2.00 ± 1.00 h
AUC ([3]; PO 10 mg/kg, mean ± spread): 1166.0 ± 589.6 ng·h/mL
Mean Norm AUC ([3]; PO): 38.8 ng·h/mL/mg
F (oral bioavailability) ([3]; Table 2, PO vs IV mean norm AUC): 13.6%
F ([3]; Table 3, 10 mg/kg PO vs IV): 13.8%
Compound: C[C@@]1(O)[C@H](O)[C@@H](CO)O[C@H]1n1cnc2c(=O)[nH]c(N)nc21 [β-D-2′-CH3-riboG]
AUC ([3]; IV bolus 10 mg/kg, individual monkeys 1-3, 10 mg/kg): 6079 ng·h/mL and 13614 ng·h/mL and 6581 ng·h/mL
Norm AUC ([3]; IV): 293.4 ng·h/mL/mg and 293.2 ng·h/mL/mg and 268.3 ng·h/mL/mg
AUC ([3]; PO gavage 10 mg/kg, individual monkeys 1-3, 10 mg/kg): 758 ng·h/mL and 898 ng·h/mL and 1842 ng·h/mL
Norm AUC ([3]; PO): 26.1 ng·h/mL/mg and 29.0 ng·h/mL/mg and 61.3 ng·h/mL/mg
IC50 [1]: > 100 µM
IC50 [2]: > 10 µM
